For orientation: Ki means a measure of affinity in units of concentration, obtained from inhibition or displacement. A lower Ki goes with tighter binding.

The target in this experiment is T1, Adrenergic receptor alpha-2 (Rattus norvegicus, UniProt P22086+P19328+P22909).
T1 sequence (P22086 whole entry): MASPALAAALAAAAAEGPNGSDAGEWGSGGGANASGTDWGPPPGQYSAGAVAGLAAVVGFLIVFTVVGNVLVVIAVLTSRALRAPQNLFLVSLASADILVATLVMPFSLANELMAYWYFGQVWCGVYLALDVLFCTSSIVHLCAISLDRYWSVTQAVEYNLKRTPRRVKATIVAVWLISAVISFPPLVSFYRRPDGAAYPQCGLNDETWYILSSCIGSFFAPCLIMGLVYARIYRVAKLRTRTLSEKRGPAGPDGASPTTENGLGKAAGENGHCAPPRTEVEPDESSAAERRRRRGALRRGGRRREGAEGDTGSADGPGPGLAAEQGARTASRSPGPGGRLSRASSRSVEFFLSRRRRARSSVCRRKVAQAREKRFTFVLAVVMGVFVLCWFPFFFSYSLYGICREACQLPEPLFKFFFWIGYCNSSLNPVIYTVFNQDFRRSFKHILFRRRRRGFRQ
T1 sequence (P19328 whole entry): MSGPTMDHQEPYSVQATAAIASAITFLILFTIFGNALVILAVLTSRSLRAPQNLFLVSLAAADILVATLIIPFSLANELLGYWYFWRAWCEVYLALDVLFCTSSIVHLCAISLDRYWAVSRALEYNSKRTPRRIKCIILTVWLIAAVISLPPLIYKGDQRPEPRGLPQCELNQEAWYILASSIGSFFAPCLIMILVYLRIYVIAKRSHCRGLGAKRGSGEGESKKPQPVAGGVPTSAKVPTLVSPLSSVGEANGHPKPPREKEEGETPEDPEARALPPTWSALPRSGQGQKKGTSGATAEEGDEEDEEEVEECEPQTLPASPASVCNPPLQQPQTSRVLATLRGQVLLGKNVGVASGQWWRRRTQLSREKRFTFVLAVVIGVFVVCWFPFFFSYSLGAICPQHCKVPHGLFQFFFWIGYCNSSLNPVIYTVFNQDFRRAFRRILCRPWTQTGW
T1 sequence (P22909 whole entry): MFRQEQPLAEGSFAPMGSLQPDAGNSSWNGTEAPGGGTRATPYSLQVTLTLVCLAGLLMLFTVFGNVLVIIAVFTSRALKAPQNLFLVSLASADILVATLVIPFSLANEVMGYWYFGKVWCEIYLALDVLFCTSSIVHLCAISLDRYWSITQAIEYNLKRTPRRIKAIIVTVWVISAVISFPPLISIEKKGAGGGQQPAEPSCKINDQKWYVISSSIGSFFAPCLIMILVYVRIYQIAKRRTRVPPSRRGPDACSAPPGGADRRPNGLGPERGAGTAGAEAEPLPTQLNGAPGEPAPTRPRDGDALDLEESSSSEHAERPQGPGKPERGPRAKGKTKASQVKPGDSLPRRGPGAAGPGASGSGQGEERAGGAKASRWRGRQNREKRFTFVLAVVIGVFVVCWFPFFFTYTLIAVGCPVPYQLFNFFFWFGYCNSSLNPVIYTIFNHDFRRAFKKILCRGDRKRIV
Briefly: In vitro inhibition of [3H]clonidine from alpha-2 adrenergic receptor of rat cortex.

As to `CCNS(=O)(=O)c1ccc2c(c1)CNC(CO)C2` (stereo not given), the Ki was determined as 210 µM. Compound `CCCNS(=O)(=O)c1ccc2c(c1)CNC(CO)C2` (stereo not given) came in with an inhibitory constant (Ki) of 230 µM. In the case of `O=S(=O)(Nc1ccc(Cl)cc1)c1ccc2c(c1)CNC(CO)C2` (stereo not given), the inhibitory constant (Ki) turned out to be 53 µM. In turn, `O=S(=O)(NCC(F)(F)F)c1ccc2c(c1)CNC(CO)C2` (stereo not given) gave an inhibition constant Ki of 340 µM. As for `O=S(=O)(c1ccc2c(c1)CNC(CO)C2)N1CCSCC1` (stereo not given), the figure is 320 µM.

The values are drawn from ChEMBL document CHEMBL1145283, “3-hydroxymethyl-7-(N-substituted aminosulfonyl)-1,2,3,4-tetrahydroisoquinoline inhibitors of phenylethanolamine N-methyltransferase that display remarkable potency and selectivity” (J Med Chem, 2005).
